The record followed here is a melting point compilation (Tetko et al.; mined from patent text by program, amines drawn as free bases though some values may be those of a salt).

For `CCCCNC(=O)CC(=O)Nc1ccc(Br)cc1C`, the melting point was in the range of 123 to 125 °C.

`CC(C)NC(=O)c1c[nH]c2ncc(-c3nn(CCCN(C)C)c4cc(Cl)cc(F)c34)nc12` gave a melting point of 249 to 255 °C.

The molecule `O=C(O)COCc1nn(Cc2ccc(F)cc2)c2ccccc12` registered a melting point of 135 to 136 °C.

On to `CCOC(=O)N1CCC2(CC1)C(=O)NCN2c1ccc(F)cc1`, for which the melting point came to 153 °C.

Turning to `CC(C)(C)c1cc(C(=O)Nc2ccc(N)cc2)cc(C(C)(C)C)c1O`, the melting point is 220 to 221 °C.

With `COC(=O)C#CC(=O)c1ccc(Cl)c(Cl)c1`, the melting point was 58 to 59 °C.

In the case of `COc1ccc(-c2cc(Br)c3cc(OC)ccc3n2)cc1`, the melting point was in the range of 157 to 158 °C.

For `CCOCc1nc2c(N)nc3ccc(NC(=O)C(C)C)cc3c2n1CC(C)(C)O`, the melting point fell in the range of 259 to 261 °C.

In turn, `CCCC(O)(C(=O)Nc1cc(Br)nc(OC)c1)C(C)C` (configuration not stated) returned a melting point of 116 °C.

`CC(CS(=O)(=O)c1ccc(Oc2ccc(Cl)cc2)cc1)N(O)C=O` (configuration not stated) had a melting point of 144 to 145 °C.

As to `CON=Cc1cc(NC(=O)N2CCOCN2)c(Cl)cc1Cl`, the melting point lay within 205 to 208 °C.

`CCCCCCCCc1ccc(OCC(=O)Cn2cccn2)cc1` gave a melting point of 85 to 87 °C.

`O=c1oc(-c2ccccc2)cc(O)c1SCC1CC1`: the melting point is 136 to 137 °C.

Molecule `Cc1nc2c(N)nc3ccccc3c2n1CCCCNC(=O)C1CCCCC1` registered a melting point of 192 to 193 °C.

Regarding `CC(=O)C(=Cc1ccccc1)C(C)=O`, the melting point is 165 to 167 °C.

Consider `Cc1noc(NS(=O)(=O)c2c(Cl)sc(Cl)c2Br)c1Br`, for which the melting point was in the range of 146 to 149 °C.

As for `CSC1C=C2C=CC=CN2N1[N+](=O)[O-]` (configuration not stated), the melting point was 225 °C.

`COc1cc2ncc(C#N)c(Nc3ccc4[nH]ncc4c3)c2cc1OC` returned a melting point of 290 to 295 °C.

The molecule `CCCOc1ccccc1-c1nc2nc(N(C)C)nnc2c(=O)[nH]1` displayed a melting point of 258 to 259 °C.

The molecule `CN(SN1CCOCC1)C(=O)ON=C1SCC(=O)NC1(C)C` displayed a melting point of 180 to 182 °C.

In turn, `N#CCOC(=O)c1ccc2nc3ccc(O)cc3c(=O)n2c1` returned a melting point of 260 to 262 °C.

`CCSc1cc(C)nc(SCC)c1NC(=O)CCCCCSc1nc2ccccc2s1`: the melting point was in the range of 81 to 83 °C.

In turn, `CCCCOCCc1ccc(C2=CCC(c3ccc(Br)cc3)CC2)cc1` (configuration not stated) showed a melting point of 86.5 to 89.5 °C.

Consider `CCOCC(O)COc1cccc2oc(-c3ccccc3)cc(=O)c12` (configuration not stated), for which the melting point lay in the range of 85 to 86.5 °C.

For the molecule `CCOC(=O)CCCOc1ccc(C(C)=O)cc1OC`, the melting point was 53 to 55 °C.

Molecule `Cc1cccc2c1CCn1ncnc1C2=C1CCN(C)CC1` registered a melting point of 150 °C.

In turn, `O=[N+]([O-])c1ccc(Cc2nnco2)cc1` registered a melting point of 104 to 105 °C.

For `CCOC(=O)N(c1cccc(C(F)(F)F)c1)c1ccccc1-n1nc(C(=O)O)nc1CCl`, the melting point is 100 to 108 °C.

The molecule `CCCCCCCCCCCC(CCCCC(=O)N(c1ccccc1)c1ccccc1)OC` (configuration not stated) gave a melting point of 51 to 52 °C.

As to `Cc1ccc(N2CCN(S(=O)(=O)c3cccc(/C=C/C(=O)NO)c3)CC2C)cc1` (configuration not stated), the melting point is 186 °C.

Consider `CCNCc1ccc2nc(C)[nH]c(=O)c2c1`, for which the melting point is above 260 °C.

For `COC(=O)c1nc(-c2ccc(C)c(C)c2)cc(N)c1Cl`, the melting point was in the range of 154 to 156 °C.

As to `C=CCOC1C(NC(C)=O)C(OCc2ccccc2)OC(COCc2ccccc2)C1OCc1ccccc1` (configuration not stated), the melting point worked out at 138 °C.

The molecule `Cn1cncc1C(N)(c1ccoc1)c1ccc2c(c1)c(-c1cccc(Cl)c1)cc(=O)n2C` (configuration not stated) returned a melting point of 197 °C.

Molecule `CN(C)C(=O)c1cnn(-c2c(Cl)cc(Cl)cc2Cl)c1N` registered a melting point of 226 to 228 °C.

For `ONC(CCc1ccccc1)CCc1ccccc1`, the melting point lay within 54 to 55 °C.

The molecule `Cc1ccc(-c2cc(C(F)(F)F)n3cnc(C#N)c3n2)cc1C(F)(F)F` displayed a melting point of 220 °C.

The molecule `CCOC(=O)c1c(O)c2cnc(N3CCCC3)nc2n(C)c1=O` returned a melting point of 174 to 177 °C.

`N#Cc1ccc(OCc2ccc(CCc3ccncc3)cc2)cc1` yielded a melting point of 139 to 140 °C.

`Cc1ccc(C(=O)NN(C(=O)c2cc(Cl)sc2Cl)C(C)(C)C)cc1` had a melting point of 163 to 165 °C.

Consider `O=C(Nc1ccc(C(F)(F)F)cc1)N1CCC(c2ccccc2)C(c2ccccc2)=N1` (configuration not stated), for which the melting point fell in the range of 171 to 173 °C.

Molecule `c1ccc(CCC2CCN(Cc3c[nH]c4ncccc34)CC2)cc1` had a melting point of 162 to 163 °C.

On to `COC(Cc1ccc(OCCc2nc(C(C)(C)C)oc2C)c2ccccc12)C(=O)O` (configuration not stated), for which the melting point fell in the range of 141 to 143 °C.

`CN1C(=O)CC[C@]2(C)c3ccc(SCc4nc5ccccc5s4)cc3CC[C@@H]12` gave a melting point of 78 to 80 °C.

`CCN(CC)c1ccc2c(c1)OC(C(F)(F)F)C(C(=O)O)=C2` (configuration not stated) returned a melting point of 214 to 215 °C.

`NC1=NN(c2cccc(Cl)n2)C(c2ccccc2)C1` (configuration not stated) showed a melting point of 188 °C.

In turn, `N#CCN1C(=O)C2(COc3cc4c(cc32)OCO4)c2ccccc21` (configuration not stated) yielded a melting point of 170 to 172 °C.

In the case of `Cc1oc(-c2ccc(C(F)(F)F)cc2)nc1-c1ccc2c(Br)c(OCC(=O)O)ccc2c1`, the melting point is 212 to 214 °C.

Molecule `C=CCCC(C#N)(C#N)Cc1ccc(Cl)cc1` showed a melting point of 63.7 °C.

As to `CCOC(=O)c1cn(C2CC2)c2cc(Cl)c(F)c(Cl)c2c1=O`, the melting point was in the range of 227 to 229 °C.

In turn, `CCC(=O)Nc1c(C)nn(C)c1C#N` came in with a melting point of 153 to 155 °C.

The molecule `O=C(c1cccc(C(F)(F)F)c1F)N1CCN(Cc2cncc(Nc3cc[nH]n3)n2)CC1` displayed a melting point of 160 to 163 °C.

The molecule `COc1ccc(S(=O)(=O)N2C(=O)C(O[Si](C)(C)C)(c3ccccc3C(F)(F)F)c3cc(Cl)ccc32)c(OC)c1` (configuration not stated) came in with a melting point of 144 to 145 °C.

For `Nc1ccccc1C(O)c1cc(C(F)(F)F)nc2c(C(F)(F)F)cccc12` (configuration not stated), the melting point was 146 °C.

`CON1C(=O)CC2(CCN(C(=O)OC(C)(C)C)CC2)C1=O` displayed a melting point of 117 °C.

Consider `C(=Cc1cccnc1)c1ccc(C2OCCO2)cc1`, for which the melting point lay in the range of 117 to 119 °C.

In the case of `COC(=O)c1cc(I)cc(C)c1OC`, the melting point is 55 to 57 °C.

As to `CCOC(=O)c1ccc(COc2ccc3c(c2)C(C)(C)CCC3(C)C)cc1`, the melting point was in the range of 76 to 77 °C.

`NC(=O)N1CC(Oc2ccccn2)C1` displayed a melting point of 133 to 137 °C.

For `CCOC(=O)c1nc(S)n2c1c(=O)n(C)c1cc(C(F)(F)F)ccc12`, the melting point is 282 °C.

The molecule `Nc1cc(-n2cc(C(=O)O)c(=O)c3cc(F)c(Cl)nc32)c(F)cc1Cl` gave a melting point above 270 °C.

Turning to `Cc1c(/C=C/C(=O)c2nn(C)c3ccccc23)ncn1C(c1ccccc1)(c1ccccc1)c1ccccc1`, the melting point was in the range of 223 to 225 °C.

Molecule `N#Cc1ccc(Cn2c(=O)sc3c(=O)[nH]c(N)nc32)cc1` showed a melting point above 320 °C.

As for `O=[N+]([O-])c1cn2c(n1)OC(COc1ccc(-c3csc(Cc4ccc(OC(F)(F)F)cc4)n3)cc1)CC2` (configuration not stated), the melting point lay within 222 to 224 °C.

For `CCCc1nc2c(N)nc(C)c(C)c2n1CC(C)(C)NC(=O)c1ccccc1`, the melting point was in the range of 208 to 210 °C.

With `O=C(c1ccccc1)c1cc2ccnc(Cl)c2[nH]1`, the melting point was in the range of 152 to 153 °C.

On to `CN(C)OCc1nnc2n1-c1ccc(Cl)cc1C(c1ccccc1)=NC2`, for which the melting point is 174 °C.

Molecule `NS(=O)(=O)c1ccc(-n2sc3cc(F)ccc3c2=O)cc1` displayed a melting point of 265 to 266 °C.

The molecule `Cc1nc(NC(=O)c2nnn(Cc3ccc(Cl)c(Cl)c3)c2C)sc1C(=O)O` came in with a melting point of 263 °C.

As for `CCN(CC)CCOc1ccc(C#CC(C)(C)O)cc1`, the melting point amounted to 64 °C.

For the molecule `CCOc1nc(N)nc(OC(F)(F)F)n1`, the melting point is 69 to 71 °C.

With `COC(CCCCC(N)=O)OC`, the melting point turned out to be 57 °C.

Regarding `CCOC(=O)c1c2ccc(CC(=O)NOCCN3CCCCC3)ccc-2c(C(=O)OCC)c1N`, the melting point fell in the range of 163 to 165 °C.

For `Cc1ccc(NC(=O)c2ccc(CN3CCN(C)CC3)c(C(F)F)c2)cc1Nc1nccc(-c2cncnc2)n1`, the melting point fell in the range of 206 to 207 °C.

The molecule `CN=Cc1ccc2cc(OC)ccc2c1` came in with a melting point of 109 to 110 °C.

Molecule `Cc1nc(N2CCN(Cc3ccccn3)C2=O)sc1C(=O)NCc1cccnc1` returned a melting point of 58 to 61 °C.

In turn, `Cc1c(-c2ccc(O)cc2)n(Cc2ccc(OCCN3C(C)CCCC3C)cc2)c2ccc(O)cc12` (configuration not stated) came in with a melting point of 114 to 121 °C.

With `CCCCc1ncc(C(=O)OC)c(=O)[nH]1`, the melting point was 153 to 155 °C.

`CCOC1OC(=O)CC1NC(=O)C1CCCN1C(=O)C(NC(=O)c1ccc(N)c(Cl)c1)C(C)(C)C` (configuration not stated): the melting point fell in the range of 96 to 99 °C.

`CSc1ccc(COC(=O)OCc2ccc([N+](=O)[O-])cc2)cc1` yielded a melting point of 84 to 86 °C.

As to `CCOc1csc2c(=O)c(SC)cn(C)c12`, the melting point lay within 214 to 217 °C.

In turn, `COCC(=O)Nc1ccc(-c2ccncc2)cc1` registered a melting point of 177 to 178 °C.

`O=C(O)c1cnn2c(C3CC3)cc(-c3ccc(Cl)cc3)nc12`: the melting point lay within 242 to 243 °C.

As for `COc1c(S(=O)(=O)Cl)ccc(Cl)c1CBr`, the melting point was in the range of 88 to 92 °C.

In turn, `CCCNC(=O)n1nc(Oc2c(Cl)cc(C(F)(F)F)cc2Cl)cc1C(Cl)(Cl)Cl` showed a melting point of 89 to 91 °C.

As for `COc1cccc(CC(=O)O)c1OCCc1ccccc1`, the melting point is 88 to 89 °C.

The molecule `COc1ccc(-c2nc(Sc3ccc(C)cc3)n(C3CCCCO3)c2-c2ccc(OC)cc2)cc1` (configuration not stated) showed a melting point of 192 °C.

Molecule `Cc1c(CN(C)C)cc(C(C)(C)C)c(O)c1C` registered a melting point of 101 to 104 °C.

`COC(=O)N1C=C(C=O)CC([C@@H]2CCCN2C)=C1` had a melting point of 78 to 80 °C.

`N#CC1(CCCCCCCCCCCCC2(C(=O)O)CC2)CC1` registered a melting point of 44.4 to 46.9 °C.

With `O=[N+]([O-])c1ccc(-c2cc(Br)sc2-c2ccc(F)cc2)cc1`, the melting point is 129 to 130 °C.

On to `CC(C)(C)NC(=O)NCC#CCNC(=O)Nc1nc2c(s1)-c1c(cnn1-c1ccccc1)CC2`, for which the melting point turned out to be 196 °C.

By melting point is commonly meant the temperature of the solid-liquid transition.
